# Literature values, collected in patent publication US4200650A, “2-Amino-cyclopent-1-ene-1-thiocarboxylic acid-disulfides to treat noradrenergic malfunctions” (Richter Gedeon Vegyeszeti Gyar Rt., priority 1976, dated 1980).
# Tested on: dopamine-β-hydroxylase
# Details: literature; cited from earlier work
SMILES,"dopamine-β-hydroxylase inhibiting effects, in words","duration of activity, in words"
CCN(CC)C(=S)S [diethyl dithiocarbamate],strong dopamine-β-hydroxylase inhibiting effects,–
Cn1cc[nH]c1=S [methimazol],possess dopamine-β-hydroxylase inhibiting effects,–
NNCc1ccccc1 [benzylhydrazine],exert dopamine-β-hydroxylase inhibiting effects,exert their activities for a short period
O=C(CO)c1coc(=O)c2c(O)cccc12 [Oosponol],strong dopamine-β-hydroxylase inhibiting effects,–
"CCCCc1ccc(C(=O)O)nc1 [Fusaric acid, 5-butyl-picolinic acid]",strong dopamine-β-hydroxylase inhibiting effects,–
